How the values were obtained:
Assay type in all cases: in vivo
[1] = tested on: chickweed (Stellaria media); experiment: Test B postemergence plant response
In short: (§1)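 Visual ratings from 0 (no effect) to 100 (complete control), made against controls 13–15 days after treatment, kept in a greenhouse. Compounds were applied postemergence to potted plants at the 1- to 4-leaf stage (2–18 cm).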

[2] = tested on: canarygrass (Phalaris minor); experiment: Test B postemergence plant response
In short: as §1

[3] = tested on: windgrass (Apera spica-venti); experiment: Test B postemergence plant response
In short: as §1

[4] = tested on: barnyardgrass (Echinochloa crus-galli); experiment: Test A pre-/postemergence plant response
In short: (§2)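 Visual injury rating on a 0–100 scale (0 = no effect, 100 = complete control) was made versus untreated controls after about ten days in the greenhouse. Compounds, formulated in a non-phytotoxic solvent mix containing surfactant, were sprayed preemergence onto loam/sand soil and postemergence onto one- to two-leaf plants.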

[5] = tested on: velvetleaf (Abutilon theophrasti); experiment: Test A pre-/postemergence plant response
In short: as §2

[6] = tested on: morningglory (Ipomoea spp.); experiment: Test A pre-/postemergence plant response
In short: as §2

[7] = tested on: giant foxtail (Setaria faberii); experiment: Test A pre-/postemergence plant response
In short: as §2

[8] = tested on: large crabgrass (Digitaria sanguinalis); experiment: Test A pre-/postemergence plant response
In short: as §2

corn (Zea mays) = experiment: Test A pre-/postemergence plant response
In short: as §2

[9] = tested on: pigweed (Amaranthus retroflexus); experiment: Test A pre-/postemergence plant response
In short: as §2

[10] = tested on: wheat (Triticum aestivum); experiment: Test A pre-/postemergence plant response
In short: as §2

rice (Oryza sativa) = experiment: Test B flooded paddy test; details: for Plant response rating, Flood, Rice: 250 g ai/ha, flooded paddy test, visual rating on 0 to 100 scale (0 no effect, 100 complete control) after 13 to 15 days; for Plant response rating, Rice: Flood (flooded paddy test), 13 to 15 days
In short: (§3)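 Greenhouse-held for 13 to 15 days, treated pots were compared visually with controls and scored 0–100 (0, no effect). Treatment had been made into paddy water kept at 3 cm above the soil, with plants at the 2-leaf stage.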

[11] = tested on: ducksalad (Heteranthera limosa); experiment: Test B flooded paddy test; details: for Plant response rating, Flood, Ducksalad: 250 g ai/ha, flooded paddy test, visual rating on 0 to 100 scale (0 no effect, 100 complete control) after 13 to 15 days; for Plant response rating, Ducksalad: Flood (flooded paddy test), 13 to 15 days
In short: as §3

[12] = 31 g ai/ha, postemergence, scale 0 to 100, 0 is no effect, 100 is complete control
[13] = 62 g ai/ha, postemergence, 0 is no effect, 100 is complete control, 13 to 15 days
[14] = Postemergence, 125 g ai/ha, scale 0 to 100 (0 no effect, 100 complete control)
[15] = Postemergence, 250 g ai/ha, scale 0 to 100 (0 no effect, 100 complete control)
[16] = Postemergence, 125 g ai/ha, 0 to 100 scale where 0 is no effect and 100 is complete control
[17] = Postemergence, 500 g ai/ha, 0 to 100 scale, 0 = no effect, 100 = complete control, approx. ten days
[18] = Preemergence, 125 g ai/ha, 0 to 100 scale, 0 = no effect, 100 = complete control
[19] = Preemergence, 500 g ai/ha, visual injury, 0 to 100 scale (0 no effect, 100 complete control), approx. ten days
[20] = 62 g ai/ha, scale of 0 to 100 where 0 is no effect and 100 is complete control
[21] = Postemergence, 31 g ai/ha, scale 0 to 100 (0 no effect, 100 complete control)
[22] = Postemergence, 62 g ai/ha, scale 0 (no effect) to 100 (complete control), 13 to 15 days
[23] = Postemergence, 125 g ai/ha, visual rating after 13 to 15 days, scale 0 (no effect) to 100 (complete control)
[24] = Postemergence, 250 g ai/ha, scale 0 to 100
[25] = Postemergence, 125 g ai/ha, visual injury, 0 to 100 scale (0 no effect, 100 complete control), approx. ten days
[26] = 31 g ai/ha, scale of 0 to 100 where 0 is no effect and 100 is complete control
[27] = 62 g ai/ha, scale 0 to 100, 0 is no effect, 100 is complete control
[28] = 125 g ai/ha, scale 0 to 100, 0 is no effect, 100 is complete control

CCCCn1c(-c2cc(F)cc(F)c2)ncc(C(=O)C2=C(O)CCCC2=O)c1=O [Compound 121]
Plant response rating, Chickweed [1, 12]: 100
Chickweed plant response rating (0 to 100 scale) [1, 13]: 100
Plant response rating, Chickweed [1, 14]: 100
Plant response rating, Chickweed [1, 15]: 100
Plant response rating, Canarygrass [2, 12]: 0
Canarygrass plant response rating (0 to 100 scale) [2, 13]: 5
Plant response rating, Canarygrass [2, 14]: 5
Plant response rating, Canarygrass [2, 15]: 30
Windgrass plant response rating (0 to 100 scale) [3, 13]: 98
Plant response rating, Windgrass [3, 14]: 100
Plant response rating, Barnyardgrass [4, 16]: 80
Plant response rating, Barnyardgrass [4, 17]: 100
Plant response rating, Barnyardgrass [4, 18]: 20
Plant response rating, Barnyardgrass [4, 19]: 100
Plant response rating, Velvetleaf [5, 16]: 100
Plant response rating, Velvetleaf [5, 17]: 100
Plant response rating, Velvetleaf [5, 18]: 80
Plant response rating, Velvetleaf [5, 19]: 100
Plant response rating, Morningglory [6, 16]: 100
Plant response rating, Morningglory [6, 17]: 100
Plant response rating, Morningglory [6, 18]: 0
Plant response rating, Morningglory [6, 19]: 70
Plant response rating, Foxtail, Giant [7, 16]: 90
Plant response rating, Foxtail, Giant [7, 17]: 90
Plant response rating, Foxtail, Giant [7, 18]: 80
Plant response rating, Foxtail, Giant [7, 19]: 100
Plant response rating, Crabgrass, Large [8, 16]: 80
Plant response rating, Crabgrass, Large [8, 17]: 100
Plant response rating, Crabgrass, Large [8, 18]: 90
Plant response rating, Crabgrass, Large [8, 19]: 100
Plant response rating, Corn (corn (Zea mays); [16]): 0
Plant response rating, Corn (corn (Zea mays); [17]): 40
Plant response rating, Corn (corn (Zea mays); [18]): 0
Plant response rating, Corn (corn (Zea mays); [19]): 30
Plant response rating, Pigweed [9, 16]: 100
Plant response rating, Pigweed [9, 17]: 100
Plant response rating, Pigweed [9, 18]: 80
Plant response rating, Pigweed [9, 19]: 100
Plant response rating, Wheat [10, 16]: 30
Plant response rating, Wheat [10, 17]: 60
Plant response rating, Wheat [10, 18]: 0
Plant response rating, Wheat [10, 19]: 50
Plant response rating, Flood, Rice (rice (Oryza sativa)): 55
Plant response rating, Rice (rice (Oryza sativa); [20]): 0
Plant response rating, Flood, Ducksalad [11]: 80
Plant response rating, Ducksalad [11, 20]: 45

5-[(2-hydroxy-6-oxo-1-cyclohexen-1-yl)carbonyl]-2,3-diphenyl-4(3H)-pyrimidinone [Compound 2]
Plant response rating, Chickweed [1, 21]: 55
Plant response rating, Chickweed [1, 22]: 60
Plant response rating, Chickweed [1, 23]: 65
Chickweed plant response rating [1, 24]: 90
Plant response rating, Canarygrass [2, 21]: 0
Plant response rating, Canarygrass [2, 22]: 0
Plant response rating, Canarygrass [2, 23]: 0
Canarygrass plant response rating [2, 24]: 0
Plant response rating, Windgrass [3, 21]: 0
Plant response rating, Windgrass [3, 22]: 0
Plant response rating, Windgrass [3, 23]: 0
Windgrass plant response rating [3, 24]: 5
Barnyardgrass plant response rating [4, 25]: 20
Plant response rating, Barnyardgrass [4, 17]: 60
Plant response rating, Barnyardgrass [4, 18]: 0
Plant response rating, Barnyardgrass [4, 19]: 10
Velvetleaf plant response rating [5, 25]: 100
Plant response rating, Velvetleaf [5, 17]: 100
Plant response rating, Velvetleaf [5, 18]: 60
Plant response rating, Velvetleaf [5, 19]: 80
Morningglory plant response rating [6, 25]: 70
Plant response rating, Morningglory [6, 17]: 90
Plant response rating, Morningglory [6, 19]: 50
Foxtail, Giant plant response rating [7, 25]: 10
Plant response rating, Foxtail, Giant [7, 17]: 40
Plant response rating, Foxtail, Giant [7, 18]: 0
Plant response rating, Foxtail, Giant [7, 19]: 10
Crabgrass, Large plant response rating [8, 25]: 50
Plant response rating, Crabgrass, Large [8, 17]: 80
Plant response rating, Crabgrass, Large [8, 18]: 10
Plant response rating, Crabgrass, Large [8, 19]: 70
Corn plant response rating (corn (Zea mays); [25]): 0
Plant response rating, Corn (corn (Zea mays); [17]): 0
Plant response rating, Corn (corn (Zea mays); [18]): 0
Plant response rating, Corn (corn (Zea mays); [19]): 0
Pigweed plant response rating [9, 25]: 70
Plant response rating, Pigweed [9, 17]: 80
Plant response rating, Pigweed [9, 18]: 20
Plant response rating, Pigweed [9, 19]: 100
Wheat plant response rating [10, 25]: 10
Plant response rating, Wheat [10, 17]: 20
Plant response rating, Wheat [10, 18]: 0
Plant response rating, Wheat [10, 19]: 0
Plant response rating, Flood, Rice (rice (Oryza sativa)): 0
Plant response rating, Rice (rice (Oryza sativa); [26]): 0
Plant response rating, Rice (rice (Oryza sativa); [27]): 0
Plant response rating, Rice (rice (Oryza sativa); [28]): 0
Plant response rating, Flood, Ducksalad [11]: 0
Plant response rating, Ducksalad [11, 26]: 0
Plant response rating, Ducksalad [11, 27]: 0
Plant response rating, Ducksalad [11, 28]: 0

Reference: patent US8952024B2, “Herbicidal pyrimidone derivatives” (E I du Pont de Nemours and Company, priority 2009, dated 2015)
